Here are results for eleven compounds from patent US20250092039A1, “GLUTARIMIDE-CONTAINING PAN-KRAS-MUTANT DEGRADER COMPOUNDS AND USES THEREOF” (Tiger Biotherapeutics Inc., priority 2022, published 2025).

Molecules are shown by their SMILES. Where two headings read alike, the source gives them in different places.

One series deals with KRAS G12V (Homo sapiens (Human), UniProt P01116, G12V). The series can be described thus: KRAS G12V degradation in SW620 cells (Western blot, DC50). It is filed as cell-based. Particulars: 24 hours. The gist of the method: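 KRAS levels were quantified by fluorescent Western blot as percent of the DMSO control after 24 h of compound exposure at 37° C in homozygous KRAS G12V SW620 cells. A four-parameter variable-slope fit of the dose-response gave the half-maximal degradation concentration.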
Chain of KRAS G12V (P01116-2 other isoform, or with tags, fused parts or gaps G12V): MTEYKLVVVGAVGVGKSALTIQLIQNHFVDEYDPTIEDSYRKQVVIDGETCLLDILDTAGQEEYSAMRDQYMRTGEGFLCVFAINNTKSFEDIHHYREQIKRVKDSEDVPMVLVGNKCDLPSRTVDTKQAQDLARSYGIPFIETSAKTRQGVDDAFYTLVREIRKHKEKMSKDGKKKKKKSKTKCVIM
In general terms: In western blotting, separated proteins are transferred to a membrane and probed.

The target of the next series is KRAS-G12V/RAF1 (Homo sapiens (Human), UniProt P01116, G12V). The series can be described thus: KRAS/RAF1 binding inhibition assay (AlphaScreen). The gist of the method: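 IC50 comes from variable-slope nonlinear fits of % inhibition (relative to DMSO) against inhibitor concentration. The AlphaScreen signal tracks the interaction of GppNHp-bound KRAS G12V with the RAF1 RBD after 60 min at 4° C with compound in 2% DMSO final.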
Chain of KRAS-G12V/RAF1 (P01116-2 other isoform, or with tags, fused parts or gaps G12V): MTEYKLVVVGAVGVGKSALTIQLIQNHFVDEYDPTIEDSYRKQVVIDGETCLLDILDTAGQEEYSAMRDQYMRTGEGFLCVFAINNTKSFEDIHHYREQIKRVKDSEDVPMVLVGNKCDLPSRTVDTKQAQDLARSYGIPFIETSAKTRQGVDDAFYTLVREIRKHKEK
Background: Alpha assays give light when donor and acceptor beads are brought close together.

Series [1] in a line: Pharmacokinetics following single intravenous and oral gavage dosing (AUC0-24h). It is filed as in vivo. Particulars: mouse, plasma, male CD-1 mice. As for the experimental part: Compounds disclosed herein were studied for animal tolerability and pharmacokinetics following single intravenous (iv) and oral gavage (po) dosing to male CD-1 mice. For each compound in each dosing route, 3 mice were used with iv dosing volume of 5 mL/kg and po dosing volume of 10 mL/kg. The compounds were formulated in 10% DMSO, 30% PEG400, 60% aqueous solution containing 20% 2-hydroxypropyl-β-cyclodextrin. Blood sampling time points for iv dosing were 0.083, 0.25, 0.5, 1, 2, 4, 8 and 24 h. The sampling time points for po dosing were 0.25, 0.5, 1, 2, 4, 6, 8 and 24 h. Mice activities were monitored and recorded immediately following the dosing. The prepared plasma samples were analyzed using LC/MS/MS on AB Sciex Triple Quad 5500+ system. The PK parameters were determined by non-compartmental analysis using WinNonlin (Version 8.0).

The next series deals with SW620 cells. The series can be described thus: 3D cell growth inhibition of SW620 cells carrying endogenous KRAS G12V mutation (CellTiter-Glo 3D, GI50). It is filed as cell-based. Particulars: Homo sapiens, SW-620, 144 h, read-out: SW620 3D cell growth GI50. The gist of the method:
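[…], compound exposure lasted 6 days at 37° C, added the day after plating from DMSO stocks over a concentration range. Cells: SW620, KRAS G12V, 3D culture.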
For orientation: In ATP-based viability assays light output follows the ATP content of the culture.

`CCc1c(F)ccc2cc(O)cc(-c3ncc4c(N5CCC[C@@](C)(O)C5)nc(OCC5(CN6CCC(CN7CCN(c8ccc9c(c8)CN([C@H]8CCC(=O)NC8=O)C9=O)CC7)(OC)CC6)CC5)nc4c3F)c12` [Compound 25, (S)-3-(5-(4-((1-((1-(((7-(8-ethyl-7-fluoro-3-hydroxynaphthalen-1-yl)-8-fluoro-4-((R)-3-hydroxy-3-methylpiperidin-1-yl)pyrido[4,3-d]pyrimidin-2-yl)oxy)methyl)cyclopropyl)methyl)-4-methoxypiperidin-4-yl)methyl)piperazin-1-yl)-1-oxoisoindolin-2-yl)piperidine-2,6-dione] came in with a DC50 at KRAS G12V of less than 1 nM. The 50% inhibitory concentration (IC50) on KRAS-G12V/RAF1 was less than 20 nM. This compound came in with an AUC(0-t) in series [1] (single oral dose 25 mg/Kg) of 525 ng·h/mL. Besides, in the series with SW620 cells (SW620 cells, 6 days), the GI50 is less than 10 nM.

In the case of `CCc1cccc2cc(O)cc(-c3ncc4c(N5CCC[C@@](C)(O)C5)nc(OCC5(CN6CCC(F)(CN7CC8(CCN(c9ccc%10c(c9)CN(C9CCC(=O)NC9=O)C%10=O)CC8)C7)CC6)CC5)nc4c3F)c12` (stereo partly drawn) [Compound 28, 3-(5-(2-((1-((1-(((7-(8-ethyl-3-hydroxynaphthalen-1-yl)-8-fluoro-4-((R)-3-hydroxy-3-methylpiperidin-1-yl)pyrido[4,3-d]pyrimidin-2-yl)oxy)methyl)cyclopropyl)methyl)-4-fluoropiperidin-4-yl)methyl)-2,7-diazaspiro[3.5]nonan-7-yl)-1-oxoisoindolin-2-yl)piperidine-2,6-dione], the 50% degradation concentration (DC50) at KRAS G12V was less than 1 nM. This compound had an IC50 at KRAS-G12V/RAF1 of 20 to 200 nM. Also, the area under the curve AUC(0-t) in series [1] (single oral dose 30 mg/Kg) worked out at 539 ng·h/mL. Moreover, the GI50 with SW620 cells (SW620 cells, 6 days) is less than 10 nM.

At KRAS G12V, `CCc1cccc2cc(O)cc(-c3ncc4c(N5CCC[C@@](C)(O)C5)nc(OCC5(CN6CCC(F)(CN7CCN(c8ccc9c(c8)CN([C@H]8CCC(=O)NC8=O)C9=O)CC7)CC6)CC5)nc4c3F)c12` [Compound 33, (S)-3-(5-(4-((1-((1-(((7-(8-ethyl-3-hydroxynaphthalen-1-yl)-8-fluoro-4-((R)-3-hydroxy-3-methylpiperidin-1-yl)pyrido[4,3-d]pyrimidin-2-yl)oxy)methyl)cyclopropyl)methyl)-4-fluoropiperidin-4-yl)methyl)piperazin-1-yl)-1-oxoisoindolin-2-yl)piperidine-2,6-dione] displayed a DC50 of less than 1 nM. Further, the IC50 at KRAS-G12V/RAF1 was in the range of 20 to 200 nM. The compound also registered an AUC(0-t) in series [1] (single oral dose 30 mg/Kg) of 509 ng·h/mL. Further, the GI50 with SW620 cells (SW620 cells, 6 days) is less than 10 nM.

Regarding `CCc1c(F)ccc2cc(O)cc(-c3ncc4c(N5CCC[C@@](C)(O)C5)nc(OCC5(CN6CCC(C)(CN7CCN(C8CCN(c9ccc%10c(c9)CN(C9CCC(=O)NC9=O)C%10=O)CC8)CC7)CC6)CC5)nc4c3F)c12` (stereo partly drawn) [Compound 39, 3-(5-(4-(4-((1-((1-(((7-(8-ethyl-7-fluoro-3-hydroxynaphthalen-1-yl)-8-fluoro-4-((R)-3-hydroxy-3-methylpiperidin-1-yl)pyrido[4,3-d]pyrimidin-2-yl)oxy)methyl)cyclopropyl)methyl)-4-methylpiperidin-4-yl)methyl)piperazin-1-yl)piperidin-1-yl)-1-oxoisoindolin-2-yl)piperidine-2.6-dione], the DC50 at KRAS G12V was less than 1 nM. The IC50 on KRAS-G12V/RAF1 is less than 20 nM. In series [1] (single oral dose 30 mg/Kg), this compound gave an AUC(0-t) of 399 ng·h/mL. Also, the GI50 in the series with SW620 cells (SW620 cells, 6 days) is less than 10 nM.

Consider `CCc1c(F)ccc2cc(O)cc(-c3ncc4c(N5CCC[C@@](C)(O)C5)nc(OCC5(CN6CCC(C)(CN7CC8(CCN(c9ccc%10c(c9)CN([C@H]9CCC(=O)NC9=O)C%10=O)CC8)C7)CC6)CC5)nc4c3F)c12` [Compound 40, (3S)-3-(5-(2-[(1-{[1-({[7-(8-ethyl-7-fluoro-3-hydroxynaphthalen-1-yl)-8-fluoro-4-[(3R)-3-hydroxy-3-methylpiperidin-1-yl]pyrido[4,3-d]pyrimidin-2-yl]oxy}methyl)cyclopropyl]methyl}-4-methylpiperidin-4-yl)methyl]-2,7-diazaspiro[3.5]nonan-7-yl}-1-oxo-3H-isoindol-2-yl)piperidine-2,6-dione], for which the DC50 at KRAS G12V was less than 1 nM. This compound yielded an IC50 at KRAS-G12V/RAF1 of less than 20 nM. The compound also came in with an AUC(0-t) in series [1] (single oral dose 30 mg/Kg) of 652 ng·h/mL. Also, in the series on SW620 cells (SW620 cells, 6 days), the GI50 was less than 10 nM.

`CCc1c(F)ccc2cc(O)cc(-c3ncc4c(N5CCCC6(CCO6)C5)nc(OCC5(CN6CCC(F)(CN7CCN(c8ccc9c(c8)CN([C@H]8CCC(=O)NC8=O)C9=O)CC7)CC6)CC5)nc4c3F)c12` (stereo partly drawn) [Compound 41, (3S)-3-(5-(4-((1-((1-(((7-(8-ethyl-7-fluoro-3-hydroxynaphthalen-1-yl)-8-fluoro-4-(1-oxa-6-azaspiro[3.5]nonan-6-yl)pyrido[4,3-d]pyrimidin-2-yl)oxy)methyl)cyclopropyl)methyl)-4-fluoropiperidin-4-yl)methyl)piperazin-1-yl)-1-oxoisoindolin-2-yl)piperidine-2,6-dione]: the DC50 on KRAS G12V was in the range of 1 to 10 nM. The same compound showed a concentration for half-maximal inhibition (IC50) on KRAS-G12V/RAF1 of 20 to 200 nM. Moreover, the AUC(0-t) in series [1] (single oral dose 30 mg/Kg) was found to be 1850 ng·h/mL. In addition, the GI50 in the series with SW620 cells (SW620 cells, 6 days) was less than 10 nM.

For `CCc1c(F)ccc2cc(O)cc(-c3ncc4c(N5CCC[C@@](C)(O)C5)nc(OCC5(CN6CCC(C)(CN7CCN(c8cc(F)c(C9CCC(=O)NC9=O)c(F)c8)CC7)CC6)CC5)nc4c3F)c12` (stereo partly drawn) [Compound 48, 3-(4-(4-((1-((1-(((7-(8-ethyl-7-fluoro-3-hydroxynaphthalen-1-yl)-8-fluoro-4-((R)-3-hydroxy-3-methylpiperidin-1-yl)pyrido[4,3-d]pyrimidin-2-yl)oxy)methyl)cyclopropyl)methyl)-4-methylpiperidin-4-yl)methyl)piperazin-1-yl)-2,6-difluorophenyl)piperidine-2,6-dione], at KRAS G12V, the DC50 was in the range of 1 to 10 nM. The same compound yielded an IC50 at KRAS-G12V/RAF1 of 20 to 200 nM. In series [1] (single oral dose 30 mg/Kg), this compound came in with an AUC(0-t) of 17200 ng·h/mL. In the series on SW620 cells, the GI50 was less than 10 nM.

In turn, `CCc1c(F)ccc2cc(O)cc(-c3ncc4c(N5CCC[C@@](C)(O)C5)nc(OCC5(CN6CCC7(CC6)CC(CN6CCN(c8cc(F)c(C9CCC(=O)NC9=O)c(F)c8)CC6)C7)CC5)nc4c3F)c12` (stereo partly drawn) [Compound 49, 3-(4-(4-((7-((1-(((7-(8-ethyl-7-fluoro-3-hydroxynaphthalen-1-yl)-8-fluoro-4-((R)-3-hydroxy-3-methylpiperidin-1-yl)pyrido[4,3-d]pyrimidin-2-yl)oxy)methyl)cyclopropyl)methyl)-7-azaspiro[3.5]nonan-2-yl)methyl)piperazin-1-yl)-2,6-difluorophenyl)piperidine-2,6-dione] displayed a DC50 at KRAS G12V of less than 1 nM. The IC50 at KRAS-G12V/RAF1 lay within 20 to 200 nM. In addition, the AUC(0-t) in series [1] (single oral dose 30 mg/Kg) is 3170 ng·h/mL. In addition, in the series on SW620 cells (SW620 cells, 6 days), the GI50 is less than 10 nM.

In turn, `CCc1c(F)ccc2cc(O)cc(-c3ncc4c(N5CCC[C@@](C)(O)C5)nc(OCC5(CN6CCC7(CC6)CC(N6CCN(c8cc(F)c(C9CCC(=O)NC9=O)c(F)c8)CC6)C7)CC5)nc4c3F)c12` (stereo partly drawn) [Compound 50, 3-(4-(4-(7-((1-(((7-(8-ethyl-7-fluoro-3-hydroxynaphthalen-1-yl)-8-fluoro-4-((R)-3-hydroxy-3-methylpiperidin-1-yl)pyrido[4,3-d]pyrimidin-2-yl)oxy)methyl)cyclopropyl)methyl)-7-azaspiro[3.5]nonan-2-yl)piperazin-1-yl)-2,6-difluorophenyl)piperidine-2,6-dione] came in with a DC50 on KRAS G12V of less than 1 nM. The same compound displayed an IC50 on KRAS-G12V/RAF1 of 20 to 200 nM. The same compound had an AUC(0-t) in series [1] (single oral dose 30 mg/Kg) of 3900 ng·h/mL. Further, the GI50 in the series with SW620 cells (SW620 cells, 6 days) is less than 10 nM.

In the case of `CCc1c(F)ccc2cc(O)cc(-c3ncc4c(N5CCC[C@@](C)(O)C5)nc(OCC5(CN6CCC7(CCC(N8CCN(c9cc(F)c(C%10CCC(=O)NC%10=O)c(F)c9)CC8)CC7)CC6)CC5)nc4c3F)c12` (stereo partly drawn) [Compound 51, 3-{4-[4-(3-{[1-({[7-(8-ethyl-7-fluoro-3-hydroxynaphthalen-1-yl)-8-fluoro-4-[(3R)-3-hydroxy-3-methylpiperidin-1-yl]pyrido[4,3-d]pyrimidin-2-yl]oxy}methyl)cyclopropyl]methyl}-3-azaspiro[5.5]undecan-9-yl)piperazin-1-yl]-2,6-difluorophenyl}piperidine-2,6-dione], the DC50 at KRAS G12V lay within 1 to 10 nM. The compound also had an IC50 on KRAS-G12V/RAF1 of 20 to 200 nM. The AUC(0-t) in series [1] (single oral dose 30 mg/Kg) was found to be 2280 ng·h/mL. Further, the GI50 with SW620 cells was less than 10 nM.

The compound `CCc1c(F)ccc2cc(O)cc(-c3ncc4c(N5CCC[C@@](C)(O)C5)nc(OCC5(CN6CC7(CCC(N8CCN(c9cc(F)c(C%10CCC(=O)NC%10=O)c(F)c9)CC8)CC7)C6)CC5)nc4c3F)c12` (stereo partly drawn) [Compound 60, 3-(4-(4-(2-((1-(((7-(8-ethyl-7-fluoro-3-hydroxynaphthalen-1-yl)-8-fluoro-4-((R)-3-hydroxy-3-methylpiperidin-1-yl)pyrido[4,3-d]pyrimidin-2-yl)oxy)methyl)cyclopropyl)methyl)-2-azaspiro[3.5]nonan-7-yl)piperazin-1-yl)-2,6-difluorophenyl)piperidine-2,6-dione] returned a DC50 at KRAS G12V of less than 1 nM. The compound further gave an IC50 on KRAS-G12V/RAF1 of 20 to 200 nM. Moreover, the AUC(0-t) in series [1] (single oral dose 30 mg/Kg) worked out at 1780 ng·h/mL. The GI50 in the series on SW620 cells (SW620 cells, 6 days) was less than 10 nM.

The DC50 is the concentration at which degradation of the target reaches its halfway point. Higher therefore signals degradation only at high concentration. Broadly, the IC50 is the midpoint of a concentration-inhibition curve. The term AUC(0-t) denotes the area under the concentration-time curve up to a stated or last time point. For orientation: GI50 means the concentration that inhibits growth by half.
